Numbers after ± are expanded uncertainties.
Experiment: refractive index (Na D-line) (dimensionless)
Conditions: 298.15 K; 101.33 kPa; Liquid; Standard Abbe refractometry

## CCCCn1cc[n+](C)c1.F[P-](F)(F)(F)(F)F [1-butyl-3-methylimidazolium hexafluorophosphate]
  refractive index: 1.40925 ± 0.00037

## CCCCO [butan-1-ol]
  refractive index: 1.39686 ± 0.00033

Source: the NIST ThermoML archive (doi:10.1021/je060260h)
